Test results from patent US20210116467A1, “DIABETES-RELATED BIOMARKERS AND TREATMENT OF DIABETES-RELATED CONDITIONS” (priority 2015, published 2021).

Each compound was assayed on GLP1 (assay: GLP1 production induced by treatment with bile acids (immunofluorescence staining of TGR5 and GLP1 in CCL-241 cells)). Conditions: CCL-241 human small intestinal normal epithelial cells; 100 μM bile acid; compared to wild type (WT) and DMSO controls; FIG. 13.
Type: cell-based
Description: Several bile acids were tested for their ability to increase production of GLP-1. Without being bound by theory, the inventor believes that compounds which increase the production of GLP-1 provide an anti-diabetic effect.
CCL-241, a human small intestinal normal epithelial cell were treated with 100 μM of different bile acids and compared to that of wild type (WT) and DMSO treatment as controls. The expression of TGR5 and GLP1 were detected by Immunofluorescence staining.

Row | SMILES | GLP1-promotion effect (expression of GLP1 detected by immunofluorescence staining)
1 | C[C@H](CCC(=O)NCC(=O)O)[C@H]1CC[C@H]2[C@@H]3C[C@H](O)[C@@H]4C[C@H](O)CC[C@]4(C)[C@H]3CC[C@]12C [GHDCA, Glycohyodeoxycholic acid] | strongest GLP1-promotion effect
2 | C[C@H](CCC(=O)O)[C@H]1CC[C@H]2[C@@H]3C[C@H](O)[C@@H]4C[C@H](O)CC[C@]4(C)[C@H]3CC[C@]12C [HDCA, Hyodeoxycholic acid] | strongest GLP1-promotion effect
3 | O=C(O)C(Cl)(Cl)Cl [TCA] | substantial GLP-1 promotion effect
4 | C[C@H](CCC(=O)O)[C@H]1CC[C@H]2[C@@H]3[C@H](O)[C@H](O)[C@@H]4C[C@H](O)CC[C@]4(C)[C@H]3CC[C@]12C [HCA, Hyocholic acid] | strongest GLP1-promotion effect
5 | C[C@H](CCC(=O)NCCS(=O)(=O)[O-])[C@H]1CC[C@H]2[C@@H]3C[C@H](O)[C@@H]4C[C@H](O)CC[C@]4(C)[C@H]3CC[C@]12C.[Na+] [THDCA, Taurohyodeoxycholic acid] | strongest GLP1-promotion effect
6 | C[C@H](CCC(=O)O)[C@H]1CC[C@H]2[C@@H]3CC[C@@H]4C[C@H](O)CC[C@]4(C)[C@H]3C[C@H](O)[C@]12C [DCA] | substantial GLP-1 promotion effect
